What was measured:
[1] = system: rats dosed cholic acid; experiment: Lowering effect on bile acid concentrations in portal vein blood in rats dosed cholic acid; format: in vivo, rat
Description: In the present Test Example, a lowering effect on bile acid concentrations in portal vein blood in rats dosed cholic acid was evaluated according to the method described in Jpn. Pharmacol. Ther., Vol. 24 Supplement, 1996, 103(S-577)-110(S-584).
That is, SD (IGS) strain male rats at 7 to 9 weeks of age were fasted one day before the administration date. […] The blood was collected from the portal vein 2 hours after the forced oral administration, and a total bile acid value in serum was measured to examine the effect of the test compound (n=6). As a control, another group (n=6) merely received cholic acid (200 mg/kg), to which the same procedure was applied. The cholic acid value was measured using the commercially available kit (brand name: Total Bile Acid-Test Wako, supplied form Wako Pure Chemical Industries). Defining the value in the control group to which no test compound had been administered as being 100%, a reduction rate (%) of the bile acid value when a certain amount of the test compound had been administered was calculated.

[2] = system: Caco-2 cell; experiment: Gastrointestinal toxicity: cytotoxicity against Caco-2 cell (LDH activity); format: cell-based, human; details: 2 hours, LDH activity in medium relative to cell lysis agent = 100%
Description: That is, 10,000 cells/well of Caco-2 cells (purchased from ATCC) were seeded in a 96-well plate [MEM-E medium, 10% FBS (Fetal Bovine Serum), 1% NEAA (Non Essential Amino Acid) solution, supplied from Gibco]. After culturing for 48 hours, the test compound diluted with the medium was added to each well. After 2 hours, 50 μL of the medium was collected, and an LDH activity in the medium was measured using an LDH activity measurement kit (CytoTox96 Non-Radioactive Cytotoxicity Assay, supplied from Promega). Defining the LDH activity of the Caco-2 cells treated with a cell lysis agent as being 100%, the relative activity was calculated as a index of the cytotoxicity.

[3] = target: T1, human IBAT (Homo sapiens, UniProt Q12908); experiment: In vitro assay using Cos 7 cells, transiently expressed human IBAT; format: cell-based; details: 37° C., 60 minutes
T1 sequence (Q12908 1-348): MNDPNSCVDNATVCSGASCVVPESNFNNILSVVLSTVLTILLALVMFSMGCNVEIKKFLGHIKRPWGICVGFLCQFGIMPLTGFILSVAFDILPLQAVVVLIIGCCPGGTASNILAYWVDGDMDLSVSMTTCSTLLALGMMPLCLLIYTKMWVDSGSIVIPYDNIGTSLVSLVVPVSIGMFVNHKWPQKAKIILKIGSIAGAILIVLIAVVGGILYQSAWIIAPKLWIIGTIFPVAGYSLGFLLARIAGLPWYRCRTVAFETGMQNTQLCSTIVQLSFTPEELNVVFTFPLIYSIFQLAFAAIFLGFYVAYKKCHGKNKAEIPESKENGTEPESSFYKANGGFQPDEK
Summary of the method: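 Cos 7 cells transfected with human or rat IBAT cDNA were assayed one day later in Hanks buffer with 25 mM glucose and 10 mM HEPES (pH 7.4) containing compound. [^3H]-taurocholate (8 μM final) uptake ran 60 min at 37° C. Cells were washed with 1 mM taurocholate, lysed in NaOH, and counted by liquid scintillation.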

[4] = target: T2, rat IBAT (Rattus norvegicus, UniProt Q62633); experiment: In vitro assay using Cos 7 cells, transiently expressed rat IBAT; format: cell-based; details: [3H]-taurocholate 8 μM uptake, 37° C., 60 minutes
T2 sequence (Q62633 1-348): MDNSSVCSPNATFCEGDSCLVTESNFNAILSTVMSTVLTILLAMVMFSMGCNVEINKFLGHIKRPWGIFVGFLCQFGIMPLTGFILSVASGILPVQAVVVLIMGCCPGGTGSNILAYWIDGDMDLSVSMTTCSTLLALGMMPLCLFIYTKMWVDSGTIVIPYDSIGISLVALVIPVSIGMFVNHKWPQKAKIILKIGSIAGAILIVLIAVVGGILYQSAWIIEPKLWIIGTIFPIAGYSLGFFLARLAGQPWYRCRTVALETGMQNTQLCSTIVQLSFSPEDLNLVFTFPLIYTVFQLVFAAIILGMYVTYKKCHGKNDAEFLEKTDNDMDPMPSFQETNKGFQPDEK
Description: In the present Test Example, an in vitro assay of compounds using Cos 7 cells as to inhibitory activity on transiently expressed human IBAT or rat IBAT transporter was performed according to the method described in Am. J. Physiol., 274, G157-169.
That is, […] cells/well of Cos 7 cells were seeded in a 24-well plate, and after one day, the cells were transfected with 0.3 μg/well of cDNA of human IBAT or rat IBAT using FuGENE6 (supplied from Roche). After culturing for one day after the transfection, the cells were washed once with the assay buffer, i.e., Hanks buffer containing 25 mM glucose and 10 mM HEPES (pH 7.4). The assay buffer was then replaced with the assay buffer containing the test compound. [^3H]-Taurocholate at a final concentration of 8 μM was added thereto and incubated at 37° C. for 60 minutes so that [^3H]-taurocholate was taken into Cos 7 cells by the action of human IBAT or rat IBAT. The cells were washed twice with the assay buffer containing 1 mM taurocholate, and subsequently lysed with 0.2 M NaOH to stop the reaction. The cell lysate was added to 4 mL of liquid scintillation cocktail, which was then thoroughly vortexed. Then the radioactivity was measured using the liquid scintillation counter.

[5] = system: rats fed cholesterol food; experiment: Blood cholesterol lowering effect in rats fed cholesterol food; format: in vivo, rat; details: 0.3 mg/kg per administration, oral, twice per day; SD (IGS) male rats; serum 3 hours after final administration
Description: In the present Test Example, a blood cholesterol lowering effect on rats fed cholesterol food was evaluated according to the method described in J. Lipid Res., 1995, 36, 1098-1105.
That is, the food containing 0.4% cholesterol and 0.5% bile acid was given to SD (IGS) strain male rats at 7 to 9 weeks of age for 5 days in advance of the test date, to increase blood cholesterol levels. The rats in which the blood cholesterol level had been obviously elevated from the level before loading the cholesterol food were selected as the subjects in the test. Colestimide (brand name: Cholebine 70% granules, supplied from Mitsubishi Tokyo Pharmaceutical Inc.) which is an anion exchange resin drug was suspended in distilled water, and the test compound was dissolved or suspended in distilled water. They were orally administered forcibly twice per day everyday from the starting date (each n=8). The blood was collected from jugular vein 3 hours after the drug administration on the final day of the experiment, and the cholesterol level in serum was measured to examine the effect of the test compound. As a control, another group (n=8) was merely fed cholesterol food, to which distilled water (1 mL/kg) was administered and the same procedure was applied. The total cholesterol value and the HDL cholesterol value were measured using commercially available kits. The value obtained by subtracting the HDL cholesterol value from the total cholesterol value was regarded as an LDL+VLDL cholesterol value.

[6] = 0.1 mg/kg oral with cholic acid 200 mg/kg, portal vein serum total bile acid 2 hours after, control = 100%, surfactant HCO-60 (##)
[7] = 0.1 mg/kg oral, surfactant Tween 20 0.05%, cholic acid 200 mg/kg, portal vein blood 2 hours after administration
[8] = 0.1 mg/kg oral, surfactant HCO-60 0.1%, cholic acid 200 mg/kg, portal vein blood 2 hours after administration

| Compound | BILE ACID REDUCTION RATE (%) IN RAT MODEL WITH CHOLIC ACID LOADING [1, 6] | CELL TOXICITY AGAINST Caco2 3 μM [2] | CELL TOXICITY AGAINST Caco2 10 μM [2] | CELL TOXICITY AGAINST Caco2 30 μM [2] | IC50 ([3]; [3H]-taurocholate 8 μM uptake) | further results |
| --- | --- | --- | --- | --- | --- | --- |
| CCCCC1(CCCC)CS(=O)(=O)c2ccc(N(C)C)cc2C(c2cccc(NC(=S)Nc3ccc(C[N+](C)(C)CCCC)cc3)c2)N1.[Br-] (racemic) [EXAMPLE 3409] | 28% | <1% | <1% | <1% | 45 nM |  |
| CCCCC1(CCCC)CS(=O)(=O)c2ccc(N(C)C)cc2C(c2cccc(NC(=S)NCCC[N+](C)(C)Cc3ccccc3)c2)N1.[Br-] (stereo not drawn) [EXAMPLE 425] |  |  |  |  | 170 nM | BILE ACID REDUCTION RATE (%) IN RAT MODEL WITH CHOLIC ACID LOADING [1, 7]: 21% |
| CCCCC1(CCCC)CS(=O)(=O)c2ccc(N(C)C)cc2C(c2cccc(NC(=S)Nc3ccc(C[N+]4(Cc5ccccc5)CCCC(CO)C4)cc3)c2)N1.[Br-] (stereo not drawn) [EXAMPLE 3607] |  | <1% | <1% | <1% | 41 nM | BILE ACID REDUCTION RATE (%) IN RAT MODEL WITH CHOLIC ACID LOADING [1, 8]: 36% |
| CCCCC1(CCCC)CS(=O)(=O)c2ccc(N(C)C)cc2C(c2cccc(NC(=S)Nc3ccc(C[N+]4(Cc5ccccc5)CCC(CCO)CC4)cc3)c2)N1.[Br-] (stereo not drawn) [EXAMPLE 3608] |  | <1% | <1% | <1% | 59 nM | BILE ACID REDUCTION RATE (%) IN RAT MODEL WITH CHOLIC ACID LOADING [1, 8]: 43% |
| CCCCC1(CCCC)CS(=O)(=O)c2ccc(N(C)C)cc2C(c2cccc(NC(=S)Nc3ccc(C[n+]4ccc(CC)cc4)cc3)c2)N1.[Br-] (stereo not drawn) [EXAMPLE 3710] | 20% | <1% | <1% | <1% | 52 nM |  |
| CCCCC1(CCCC)CS(=O)(=O)c2ccc(N(C)C)cc2C(c2cccc(NC(=S)Nc3ccc(C[n+]4cccc(CC#N)c4)cc3)c2)N1.[Br-] (stereo not drawn) [EXAMPLE 3759] |  | <1% | <1% | <1% |  | BILE ACID REDUCTION RATE (%) IN RAT MODEL WITH CHOLIC ACID LOADING ([1]; 0.3 mg/kg oral with cholic acid 200 mg/kg, portal vein serum total bile acid 2 hours after, control = 100%, surfactant HCO-60 (##)): 36% |
| CCCCC1(CCCC)CS(=O)(=O)c2ccc(N(C)C)cc2C(c2cccc(NC(=S)Nc3ccc(C[n+]4ccc5ccccc5c4)cc3)c2)N1.[Br-] (stereo not drawn) [EXAMPLE 3783] | 16% | <1% | <1% | <1% | 48 nM |  |
| CCCCC1(CCCC)CS(=O)(=O)c2ccc(N(C)C)cc2C(c2cccc(NC(=S)CCCCC[N+](C)(C)Cc3ccccc3)c2)N1.[Br-] (stereo not drawn) [EXAMPLE 3835] |  | <1% | <1% | <1% | 43 nM | BILE ACID REDUCTION RATE (%) IN RAT MODEL WITH CHOLIC ACID LOADING [1, 7]: 23% |
| CCCCC1(CCCC)CS(=O)(=O)c2ccc(N(C)C)cc2C(c2cccc(NC(=S)Nc3ccc(C[N+]45CCC(c6ccccc6)(CC4)CC5)c(F)c3)c2)N1.[Br-] (stereo not drawn) [EXAMPLE P343] |  |  | <1% | <1% | 16 nM | IC50 [4]: 5.5 nM |
| CCCCC1(CCCC)CS(=O)(=O)c2ccc(N(C)C)cc2C(c2cccc(NC(=S)Nc3ccc(C[N+]45CCC(c6ccccc6)(CC4)CC5)cc3Br)c2)N1.[Br-] (stereo not drawn) [EXAMPLE P346] |  |  | <1% | <1% | 19 nM | IC50 [4]: 6 nM |
| CCCCC1(CCCC)CS(=O)(=O)c2ccc(N(C)C)cc2C(c2cccc(NC(=S)Nc3ccc(C[n+]4ccc(C(C)(C)C)cc4)c(C)c3)c2)N1.[Br-] (stereo not drawn) [EXAMPLE P365] | 40% |  |  |  |  | LDL + VLDL REDUCTION RATE (%) IN CHOLESTEROL FED RAT MODEL (THERAPEUTIC MODEL) [5]: 44%; IC50 ([3]; [3H]-taurocholate 8 μM): 47 nM |
| CCCCC1(CCCC)CS(=O)(=O)c2ccc(N(C)C)cc2C(c2cccc(NC(=S)Nc3ccc(C[n+]4ccc(C(C)(C)C)cc4)cc3F)c2)N1.[Br-] (stereo not drawn) [EXAMPLE P366] | 45% |  |  |  | 25 nM | LDL + VLDL REDUCTION RATE (%) IN CHOLESTEROL FED RAT MODEL (THERAPEUTIC MODEL) [5]: 31% |
| CCCCC1(CCCC)CS(=O)(=O)c2ccc(N(C)C)cc2C(c2ccc(NC(=S)Nc3cccc(C[N+]45CCC(CC4)CC5)c3)cc2)N1.[Br-] (stereo not drawn) [Example 5406, 1-(3-{3-[4-(3,3-dibutyl-7-dimethylamino-1,1-dioxo-2,3,4,5-tetrahydro-1,4-benzothiazepine-5-yl)phenyl]thioureido}benzyl)-1-azoniabicyclo[2.2.2]octane bromide] |  |  |  |  |  | BILE ACID REDUCTION RATE (%) IN RAT MODEL WITH CHOLIC ACID LOADING ([1]; po, 0.1 mg/kg, 2 h): 15% |

From patent US20120015925A1, “NOVEL BENZOTHIAZEPINE AND BENZOTHIEPINE COMPOUNDS” (ASAHI KASEI PHARMA CORPORATION, priority 2004, published 2012)
